US20010055614A1, “Antidepressant therapy” (priority 1998, published 2001)
Where a name gives a salt, the structure may show the parent alone.

Legend:
[1] = pKa of amitriptyline hydrochloride; type: physicochemical
[2] = Solubility and dissolution rate of amitriptyline hydrochloride in artificial gastric and intestinal fluid; type: physicochemical
Experimental: Dosage form 10 controls the exit 13 surface area for releasing drug 16 essentially independent of the pH of the drug receiving biological receptor, thereby essentially preventing crystallizing drug 16 in exit 13, or essentially preventing blocking exit 13 with nonreleased drug 16. […] In artificial intestinal fluid at 37° C. the drug dissolution rate in artificial intestinal fluid at pH 7.5 is low compared to the dissolution rate in a lower pH such as gastric fluid having a pH of about 2. […] The dissolution rate is sensitive to pH changes, and when drug 16 is pumped from the dosage form it tends to crystallize at higher pH in orifice exit 13, or to partially block orifice exit 13, which in either instance, slows the drug release rate, and decreases the cumulative amount of drug released from the dosage form. The present invention by providing coated granules of antidepressant tricyclic drug 16, and by providing an orifice in the range of 1 mil to 30 mil (0.0254 mm to 0.760 mm), essentially overcomes the problems discussed above. […] In drawing FIG. 6, the release rate is given on the y-axis and the orifice surface area in mils and in mm^2 is given on the x-axis. The release of drug from the dosage form was measured in artificial intestinal fluid. […] Drawing FIG. 9 depicts the cumulative amount of drug release in mg, over a period of 24 hours for a coated drug through a 10 mil (0.254 mm) exit orifice illustrates about 100% of the drug is delivered free of crystalizing in the orifice. Drawing FIG. 10 depicts the release rate measured in artificial gastric fluid over zero to two hours and then in artificial intestinal fluid over two to twenty-four hours, through a 10 mil (0.254 mm) orifice illustrates about 90% of the drug is delivered under these conditions. […] The antidepressant drug is dose delivered independent of pH as found in the gastrointestinal drug and free from sticking or blocked delivery to a patient.

## CN(C)CCC=C1c2ccccc2CCc2ccccc21 [amitriptyline hydrochloride]
[1]
  pKa: 9.4
[2]; 7.5 pH, artificial intestinal fluid, compared to artificial gastric fluid at pH 6
  solubility (in words): soluble, but the solubility is less
[2]; artificial gastric fluid, pH 6, simulated gastric fluid
  solubility: > 600 mg/mL
[2]; artificial intestinal fluid at pH 7.5, 37° C., compared to gastric fluid pH about 2
  dissolution rate (in words): low
